By pEC50 is commonly meant −log10 of the EC50, conventionally taken in molar units. What is called pKi is the negative decadic logarithm of the Ki, by convention in mol/L. Read a high pKi as a low Ki.

pEC50, pKi: −log10 of the molar value. Where only a bound is given, the exact number is not on record here.

Test [1] has as its target mGPR40 (Mus musculus, UniProt Q76JU9). Kind of test: Mouse beta-arrestin agonist assay with 1% FBS (U205 cells expressing mFFAR1). As to conditions: n=3. The class given is cell-based. The text has this: (§1) Human embryonic kidney (hEK293)-hFFAR1 cells are purchased from DiscoveRx. Human osteosarcoma (U205) cells expressing mFFAR1 are developed by DiscoveRX. These cells co-express the Prolink (PK)-tagged GPR40 and the Enzyme Acceptor (EA)-tagged beta-arrestin fusion proteins. If activation of the GPR40 stimulates beta-arrestin recruitment, it would force complementation of the beta galactosidase (B-gal) enzyme fragments, forming a B-gal enzyme that generates a chemiluminescent signal using the DiscoveRx PathHunter detection kit. Cells are incubated overnight at 5,000 cells/well in 384 well plates in culture media containing 1% FBS (fetal bovine serum). Serial diluted compounds in DMSO (2× dilutions to generate 20 concentrations) are step down diluted in culture media containing 1% FBS (fetal bovine serum) and added to cells with a final top concentration starting of 100 μM. After addition of compounds, cells are incubated for 90 min at 37° C. in 5% CO2 incubator, and DiscoveRX kit detection reagents are added. Measurement of the chemiluminescent signal is ascertained with the Envision reader, after a 1-hour incubation at room temperature. Data are fit to a 4 parameter-fit logistics to determine EC50 values, % activity is measured versus maximum response to an internal standard GPR40 agonist standard, TAK875, at 1 μM.

Test [2] has as its target T1, human GPR40 (hGPR40) (Homo sapiens, UniProt O14842).
T1 construct: expressed in transfected cells; host or cells: HEK293 (membranes)
Kind of test: Radioligand competition binding assay with [3H]-TAK-875, HEK293 membranes. The settings on record: 5 nM [3H]-TAK-875; Cheng-Prusoff; mean, SEM. The text has this:
Competition curves are plotted as the percent specific inhibition versus concentration of compound and analyzed using a four parameter nonlinear regression fit with variable slope. […] See Cheng, Y. and Prusoff, W. H. (1973) “Relationship between the inhibition constant (Ki) and the concentration of inhibitor which causes 50 percent inhibition (IC50) of an enzymatic reaction”, Biochem Pharmacol 22(23):3099-108.
Background: Displacement assays read how much labelled ligand stays bound in the presence of the test substance.

Test [3] has as its target T2, PPARα (Homo sapiens, UniProt Q07869).
T2 construct: expressed in transfected cells; host or cells: CV1 (African green monkey kidney)
T2 sequence (Q07869 239-466 limits assumed): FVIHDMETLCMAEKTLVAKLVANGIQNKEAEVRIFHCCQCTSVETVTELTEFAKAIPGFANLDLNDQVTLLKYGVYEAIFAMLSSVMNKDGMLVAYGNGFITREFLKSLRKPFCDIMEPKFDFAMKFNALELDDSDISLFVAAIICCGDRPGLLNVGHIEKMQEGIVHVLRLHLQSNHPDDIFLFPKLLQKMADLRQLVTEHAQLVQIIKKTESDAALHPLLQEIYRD
Kind of test: Ga14 PPARα reporter functional assay in CV1 cells. As to conditions: 24 hours incubation, luciferase. It counts as cell-based. The text has this: (§2) Because GPR40 is known to be activated by ligands to PPARγ, exemplified compounds are examined in Ga14 PPARα, Ga14 PPARδ, and PPARγ reporter assays to determine the selectivity of exemplified compounds. CV1 cells, which are derived from the renal tissue of an African green monkey, are transfected with various receptor and reporter plasmids using Fugene. For the Ga14 PPARα and PPARδ assays, a reporter plasmid containing five tandem copies of the yeast transcription protein Ga14 response element, cloned upstream of a firefly luciferase gene driven by the major late promoter of adenovirus, is transfected together with a Simian Virus 40 (SV40) driven plasmid constitutively expressing a hybrid protein containing the Ga14 DNA binding domain (DBD), and either the PPARα or PPARδ ligand binding domain. […] After 24 hours incubation with compounds, cells are lysed and luciferase activity is determined as a measure of receptor activation by luminescence. […] The maximum percent stimulation is determined versus maximum stimulation obtained with 10 μM of an appropriated PPAR agonist reference compound, 2-methyl-2-(4-{2-methyl-3-[2-(phenylcarbonyl)-4-(trifluoromethoxy)phenoxy]propoxy}phenoxy)propanoic acid. […]

For test [4], the target named is T3, hGPR40 (Homo sapiens, UniProt O14842). Kind of test: Calcium Flux Primary Assay (FLIPR). The arrangement: expressed in transfected cells; host or cells: HEK293. As to conditions: mean, SEM. It counts as cell-based. Here is the method: HEK293 cells over expressing the human GPR40 cDNA maintained in Dulbecco's modified Eagle's medium with F12 medium in 3:1 ratio supplemented with 10% FBS and 800 μg/ml geneticin at 37° C. and 5% CO2 are employed for the study. Agonist assays are performed using a Calcium 4 Dye assay kit (Molecular Devices) in the presence or absence of 0.1% fatty acid free BSA in the assay buffer (1×HBSS (Hank's Balanced Salt Solution) & 20 mM HEPES (4-(2-hydroxyethyl)-1-piperazineethanesulfonic acid). Receptor activation is measured as an increase in intracellular calcium using the Fluorometric Imaging Plate Reader (FLIPR). Maximum change in fluorescence over the base line is used to determine the agonist response. The EC50 value of the compound is calculated using Excel Fit software (version 4; IDBS) by plotting concentration vs relative fluorescence units (RFUs). […] (Mean±SEM; SEM=standard error of the mean.)
A general note: Calcium assays in cells follow changes in intracellular calcium, usually with a dye or a luminescent sensor.
Target sequence in this assay (O14842 whole entry): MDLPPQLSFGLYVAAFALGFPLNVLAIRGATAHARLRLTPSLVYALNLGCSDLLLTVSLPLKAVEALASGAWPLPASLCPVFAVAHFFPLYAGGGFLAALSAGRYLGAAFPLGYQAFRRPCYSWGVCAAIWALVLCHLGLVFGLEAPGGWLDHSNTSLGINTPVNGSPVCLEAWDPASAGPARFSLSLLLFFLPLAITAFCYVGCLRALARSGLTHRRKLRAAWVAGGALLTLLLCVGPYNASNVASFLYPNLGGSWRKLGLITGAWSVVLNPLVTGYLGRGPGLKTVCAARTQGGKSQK

Test [5] concerns the target T3, hGPR40. Kind of test: Human beta-arrestin agonist assay with 1% FBS (hEK293-hFFAR1 cells). It counts as cell-based. Details: host or cells: HEK293 (hEK293-hFFAR1). As to conditions: n=2.
Source text: as §1
Target sequence in this assay (O14842 whole entry): as above
Target sequence in this assay (P32121 whole entry partner): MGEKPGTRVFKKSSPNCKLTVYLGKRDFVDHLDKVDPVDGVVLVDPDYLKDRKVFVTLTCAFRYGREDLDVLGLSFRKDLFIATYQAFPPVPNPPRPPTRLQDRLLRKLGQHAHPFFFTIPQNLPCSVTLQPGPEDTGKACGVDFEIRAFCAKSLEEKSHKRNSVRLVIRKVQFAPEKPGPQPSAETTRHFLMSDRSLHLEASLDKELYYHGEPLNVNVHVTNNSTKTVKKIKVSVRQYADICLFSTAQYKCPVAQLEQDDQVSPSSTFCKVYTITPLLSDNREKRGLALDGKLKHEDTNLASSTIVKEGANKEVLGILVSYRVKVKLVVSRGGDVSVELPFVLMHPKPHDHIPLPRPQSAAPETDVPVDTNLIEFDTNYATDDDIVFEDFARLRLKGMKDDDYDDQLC

Test [6] addresses T4, Human GPR40 membranes (Homo sapiens, UniProt O14842).
T4 construct: expressed in transfected cells; host or cells: HEK293 (membranes)
Kind of test: Competition binding kinetics, receptor residence time. As to conditions: 6-8 nM [3H] TAK875; mean, SEM, n=4; read-out: GPR40 Residence time, τ. On the procedure:
The association and dissociation rates of unlabeled compounds are quantified using the method described by Motulsky, H. J. and L. C. Mahan (1984), “The kinetics of competitive radioligand binding predicted by the law of mass action” Mol Pharm 25(1): 1-9. Human GPR40 membranes are incubated at various time points with 6-8 nM [^3H] TAK875 in the absence or presence of 1× Ki, 3× Ki, or 10× Ki unlabeled compound. Separation of bound and free radioligand is performed using rapid-wash filtration onto glass fiber filters and counted in a liquid scintillation counter. Rates are calculated by fitting the data to the kinetics of competitive binding model in GraphPad Prism 6, version 6.03 for Windows, GraphPad Software, La Jolla Calif. USA, www.graphpad.com.

Test [7] deals with T5, PPARγ (Homo sapiens, UniProt P37231).
T5 construct: expressed in transfected cells; host or cells: CV1 (African green monkey kidney)
T5 sequence (P37231 1-505): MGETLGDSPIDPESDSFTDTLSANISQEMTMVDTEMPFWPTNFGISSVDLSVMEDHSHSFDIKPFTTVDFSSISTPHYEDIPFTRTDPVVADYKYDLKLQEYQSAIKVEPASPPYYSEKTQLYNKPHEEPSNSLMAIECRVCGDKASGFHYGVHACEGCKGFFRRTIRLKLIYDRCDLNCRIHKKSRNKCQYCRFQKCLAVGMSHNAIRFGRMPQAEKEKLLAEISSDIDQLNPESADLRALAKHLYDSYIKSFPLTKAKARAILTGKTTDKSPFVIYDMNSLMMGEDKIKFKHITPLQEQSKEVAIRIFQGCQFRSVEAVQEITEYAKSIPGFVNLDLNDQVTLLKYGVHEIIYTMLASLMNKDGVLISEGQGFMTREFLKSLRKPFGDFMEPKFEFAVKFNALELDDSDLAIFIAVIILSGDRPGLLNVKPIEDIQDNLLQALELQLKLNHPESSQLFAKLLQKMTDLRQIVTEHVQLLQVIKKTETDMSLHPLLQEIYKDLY
T5 sequence (P19793 1-462 partner): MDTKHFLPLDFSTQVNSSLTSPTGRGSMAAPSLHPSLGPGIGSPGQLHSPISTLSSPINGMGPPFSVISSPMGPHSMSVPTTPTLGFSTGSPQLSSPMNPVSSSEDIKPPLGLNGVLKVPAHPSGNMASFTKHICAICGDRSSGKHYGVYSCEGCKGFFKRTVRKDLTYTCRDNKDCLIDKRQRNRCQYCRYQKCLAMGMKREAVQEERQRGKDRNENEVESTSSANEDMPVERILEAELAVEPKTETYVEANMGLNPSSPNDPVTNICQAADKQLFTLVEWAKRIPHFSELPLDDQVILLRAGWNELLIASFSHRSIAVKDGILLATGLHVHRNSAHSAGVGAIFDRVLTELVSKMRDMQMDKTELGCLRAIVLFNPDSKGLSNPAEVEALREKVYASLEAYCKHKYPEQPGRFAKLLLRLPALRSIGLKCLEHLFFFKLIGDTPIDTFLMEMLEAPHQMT
Kind of test: PPARγ reporter functional assay in CV1 cells. The class given is cell-based. The settings on record: PPARγ and RXRα, 24 hours incubation, luciferase.
Source text: as §2

The test system of test [8] is PPAR. Kind of test: PPAR α, δ, and γ functional assays (overall statement). As to conditions: PPARα, PPARδ and PPARγ reporter assays; efficacy of <20% is considered negative. The class given is cell-based.
Source text: as §2
(In general: A reporter such as luciferase makes a cellular process visible.)

For test [9], the target named is T6, PPARδ (Homo sapiens, UniProt Q03181).
T6 construct: expressed in transfected cells; host or cells: CV1 (African green monkey kidney)
T6 sequence (Q03181 211-439 limits assumed): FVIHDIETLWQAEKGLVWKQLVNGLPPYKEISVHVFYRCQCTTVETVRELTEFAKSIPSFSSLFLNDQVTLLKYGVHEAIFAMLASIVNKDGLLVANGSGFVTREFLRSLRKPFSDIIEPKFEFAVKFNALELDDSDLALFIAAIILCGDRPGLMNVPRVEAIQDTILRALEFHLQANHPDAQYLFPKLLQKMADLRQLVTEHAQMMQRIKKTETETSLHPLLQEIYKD
Kind of test: Ga14 PPARδ reporter functional assay in CV1 cells. The class given is cell-based. The settings on record: 24 hours incubation, luciferase.
Source text: as §2

Setting [10] is: versus maximum response to TAK875 at 1 μM.

Sequence of mGPR40 (Q76JU9 whole entry, the tested form may be a part): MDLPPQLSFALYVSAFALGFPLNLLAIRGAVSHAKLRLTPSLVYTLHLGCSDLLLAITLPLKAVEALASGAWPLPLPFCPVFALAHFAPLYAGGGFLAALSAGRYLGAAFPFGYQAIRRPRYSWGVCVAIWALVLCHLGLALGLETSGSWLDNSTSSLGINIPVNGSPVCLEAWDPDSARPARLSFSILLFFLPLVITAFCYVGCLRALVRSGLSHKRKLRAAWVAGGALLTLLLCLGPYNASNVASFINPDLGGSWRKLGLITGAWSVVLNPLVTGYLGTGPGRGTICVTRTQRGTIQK
Sequence of mGPR40 (P32121 whole entry partner, the tested form may be a part): as the sequence (P32121 whole entry partner) above
T1 sequence (O14842 whole entry): as the sequence (O14842 whole entry) above
T4 sequence (O14842 whole entry): as above

As for `CC#C[C@@H](CC(=O)O)c1ccc(OCc2cc(-c3c(C)cc(OC)cc3C)c3nc(C(C)C)nn3c2)cc1` [Example 1, (S)-3-{4-[2-Isopropyl-8-(4-methoxy-2,6-dimethyl-phenyl)-[1,2,4]triazolo[1,5-a]pyridin-6-ylmethoxy]-phenyl}-hex-4-ynoic acid], the pEC50 in [1] (1% FBS, 90 min, mean, SEM, read-out: mGPR40 b-arrestin EC50) was 8.31; in [3] it was < 5.00; in [4] (HEK293 cells over expressing human GPR40), 6.61; in test [5] (1% FBS, 90 min, mean, SEM, read-out: hGPR40 b-arrestin EC50), 7.51; in [7], 5.65; in [9] it was 5.40. The “% stimulation max (FA), mGPR40 b-arrestin” value in [1] (setting [10]) came to 149%. Besides, the pKi in [2] is 7.80. Further, the efficacy in test [4] (maximal response compared to natural ligand linoleic acid) is reported as 78.7%. Also, the “% stimulation max (FA), hGPR40 b-arrestin” value in test [5] (setting [10]) is listed as 170%. Also, the residence time in test [6] amounted to 169 min. Further, the “PPAR activity / efficacy (in words)” value in test [8] was “weak PPAR activity”.
